From patent US20220241314A1, “COMPOSITIONS AND METHODS FOR TREATMENT OF HEPATITIS B VIRUS INFECTION” (priority 2019, published 2022)
{ppp} = triphosphate

B1: poly-U/UC PAMP: ~100 nt PAMP motif from the HCV genome comprising 5′ppp and the poly U/UC region, recognized by RIG-I; formulated in liposome (nucleic acid)
chain: GGCCAUCCUGUUUUUUUCCCUUUUUUUUUUUCUUUUUUUUUUUUUUUUUUUUUUUUUUUUUUUUUUCUCCUUUUUUUUUCCUCUUUUUUUCCUUUUCUUUCCUUU
modifications: RNA, 5' {ppp}, backbone and methylation of C not given here; formulated in liposome
notes: ~100 nt PAMP motif from the HCV genome comprising 5′ppp and the poly U/UC region, recognized by RIG-I; formulated in liposome

Test system: HBV
Assay: HBV replication infection/treatment time course over 20 dpi
Format: cell-based, HBV (Genotype D)
Settings: HepG2-hNTCP; for production of pgRNA (RT-qPCR): 6 dpi to 20 dpi; for capsid-associated intracellular HBV DNA (RC, DL, SS DNA), Southern blot: 6 to 20 dpi; for production of cccDNA over time course: F7 10 μM or poly-U/UC PAMP 100 ng/ml from 24 hours after infection, within 2 dpi; for extracellular HBV DNA (qPCR) / secreted HBsAg in culture supernatant (ELISA): infection/treatment time course
Description: FIGS. 9A-9E illustrate kinetics of HBV replication in parallel cultures of cells during treatment with F7 or poly-U/UC PAMP. (9A) HepG2-hNTCP cells were infected with HBV at a moi of 1000 Geq/cell. After 24 hours the cells were treated with F7 (10 μM) (upper), or 100 ng/ml X RNA or 100 ng/ml poly-U/UC PAMP (lower). Cells were harvested at each time point, Hirt supernatants prepared and subjected to Southern blot analysis. (B) HBV pgRNA was analyzed by RT-qPCR. Values from 20 Dpi of ‘HBV only’ was set to 100% for RT-PCR analysis. Data was presented as mean±standard deviations (SD), ***P<0.001, ****P 21 0.0001; and ns=non-significant (9C) HBV intracellular capsid-associated DNA from cells treated with 10 uM F7 (upper) or 100 ng/ml XRNA or poly-U/UC PAMP (lower) was analyzed by Southern blot. (9D) Secreted HBsAg from HBV-infected cells treated with F7 (upper) or poly-U/UC (lower) was detected by ELISA. (9E) Extracellular HBV-DNA was measured by qPCR from cells treated with 10 uM (left) or 100 ng/ml XRNA or poly-U/UC PAMP (right). Data are presented as mean±standard deviation (SD) from three independent experiments. ***P 0.0002.
To further determine how the activation of IRF3 impacts the HBV replication cycle, the expression of viral DNA, viral RNA, extracellular HBV DNAs and secreted HBsAg were analyzed over an infection/treatment time course. […] The level of capsid-associated intracellular HBV DNA intermediates of reverse transcription produced over the HBV infection/treatment time course were also measured.
HBV infection HBV (Genotype D) was purified from the supernatant of HepAD38 cells by PEG concentration and subsequent sucrose gradient, as described previously (Ko, C., et al. (2014). DDX3 DEAD-Box RNA Helicase Is a Host Factor That Restricts Hepatitis B Virus Replication at the Transcriptional Level. Journal of Virology 88, 13689-13698; Watashi, K., et al. (2013), supra). For HBV infection cells were seeded into collagen-coated plates. One day later, the cells were infected with HBV in DMEM containing 4% polyethylene glycol 8000 (PEG-8000). The multiplicities of infection (expressed as virus genome equivalent/cell) are indicated in each Figure Legend. The inocula were removed 24 hours later, and the infected cultures were maintained in complete DMEM containing 2.5% DMSO until harvesting, as described previously (Ni, Y., et al. (2014). Hepatitis B and D viruses exploit sodium taurocholate co-transporting polypeptide for species-specific entry into hepatocytes. Gastroenterology 146, 1070-1083).
Reverse transcription quantitative real time qPCR (RT-qPCR) analysis: Total cellular RNAs were extracted from cells using TRIZOL reagent and the manufacturers protocol (Invitrogen). cDNA was synthesized from the purified RNA by both random and oligo (dT) priming using iScript select cDNA synthesis kit (Biorad, Inc.). For HBV cccDNA expression analysis, total DNA was extracted using the DNeasy kit (QIAGEN). For selective cccDNA PCR analysis, isolated DNAs were treated with 10 Units of T5 exonuclease (NEB) for 30 min in 10 μl of reaction volume in 37° C., followed by heat-inactivation at 95° C. for 5 min and 4-fold dilution with Nuclease-free water. For extra-cellular HBV DNA quantification, an external HBV plasmid standard was used to program the PCR (Ko, C., et al. (2018), supra). Relative mRNA levels of all target genes were quantified by RT-qPCR performed using the ΔΔCT method, and expression levels were normalized to house-keeping genes. Real-time PCR assays were carried out using the SYBR green method (Applied Biosystems) performed using an Applied Biosystems 7300 thermocycler. […]

| Molecule | production of pgRNA (RT-qPCR) | capsid-associated intracellular HBV DNA (RC, DL, SS DNA), Southern blot | production of cccDNA over time course | extracellular HBV DNA (qPCR) | secreted HBsAg in culture supernatant (ELISA) |
| --- | --- | --- | --- | --- | --- |
| O=C(Nc1ccc2nc(NC(=O)c3ccc4ccccc4c3)sc2c1)c1ccccc1 [F7, N-(6-benzamido-1,3-benzothiazol-2-yl)naphthalene-2-carboxamide] | significantly suppressed | markedly decreased the levels of these DNA species | markedly suppressed | reduction of extracellular HBV DNA | significant reduction in the level of secreted HBsAg |
| B1 | significantly suppressed | markedly decreased the levels of these DNA species | markedly suppressed | reduction of extracellular HBV DNA | significant reduction in the level of secreted HBsAg |
